Source: US20160184439A1, “ORALLY DISINTEGRATING FILM PREPARATION CONTAINING DONEPEZIL OR PHARMACEUTICALLY ACCEPTABLE SALT THEREOF, AND PREPARATION METHOD THEREFOR” (SEOUL PHARMA. CO., LTD., priority 2013, published 2016)

Test: Characteristic feature of the main excipients
Conditions: effect of excipient in donepezil film
Text: The characteristic feature of the main excipients of the present invention—In order to achieve the object of the above formulation research, it can be seen that the main excipients of the below Table 3 are essential elements.

Cc1cc(C(C)(C)C)c(O)c(C(C)(C)C)c1 [Dibuthylhydroxytoluene]
Occurrence of the impurity: Inhibition

CC(O)COC[C@H]1O[C@@H]2O[C@H]3[C@H](O)[C@@H](O)[C@@H](O[C@H]4[C@H](O)[C@@H](O)[C@@H](O[C@H]5[C@H](O)[C@@H](O)[C@@H](O[C@H]6[C@H](O)[C@@H](O)[C@@H](O[C@H]7[C@H](O)[C@@H](O)[C@@H](O[C@H]8[C@H](O)[C@@H](O)[C@@H](O[C@H]1[C@H](O)[C@H]2O)O[C@@H]8COCC(C)O)O[C@@H]7COCC(C)O)O[C@@H]6COCC(C)O)O[C@@H]5COCC(C)O)O[C@@H]4COCC(C)O)O[C@@H]3COCC(C)O (some centres unmarked) [Hydroxypropylbetadex]
Occurrence of the impurity: Inhibition
